Assay results published in patent US20180028553A1, “USE OF STING AGONIST AS CANCER TREATMENT” (The University of Chicago, priority 2013, published 2018).
“Also recorded” adds a separate entry of the source.

Columns and labels:
[1] = system: STING pathway (TBK1, IRF3 phosphorylation); assay: Western blot of pTBK1 and pIRF3 in macrophages and BM-DCs after STING agonist; format: cell-based, mouse
Protocol: DMXAA for the same time-points. Proteins were extracted with Triton-X buffer (150 mM sodium chloride, 50 mM Tris, 1% Triton-X, pH 8.0) with proteinase inhibitors (Thermo scientific) and phosphatase inhibitors (Sigma). 30 μg of protein was electrophoresed in 10% SDS-PAGE gels and transferred onto Immobilon-FL membranes (Millipore). Blots were incubated with antibodies specific for phosphorylated TBK1 (Ser172), phosphorylated IRF3 (Ser396), total TBK1, STING and GAPDH (Cell Signaling) or total IRF3 (Invitrogen). Proteins from HEK 293T lines stably expressing STING were extracted with M-PER (Thermo Scientific). 6 μg of protein was loaded onto a 4-12% MES NuPAGE gel (Life Technologies), transferred to nitrocellulose, and probed with anti-HA antibody (Santa Cruz). Anti-rabbit IRDye 680RD label secondary antibody was used for visualization of bands with the Odyssey Imaging system (LI-COR).

tumors = conditions: background statement; cited from earlier work

Compound: Cc1ccc2c(=O)c3cccc(CC(=O)O)c3oc2c1C [DMXAA, 5,6-dimethylXAA (xanthenone-4-acetic acid)]
- activation of the STING pathway (pTBK1, pIRF3) ([1]; BM-DC from WT or STING ko mice): same potent activation of the pathway
- phosphorylation of TBK1 and IRF3 ([1]; STING deficient macrophages, DMXAA 50 μg/ml): not in STING deficient cells; also recorded: abolished
- phosphorylation of TBK1 and IRF3 ([1]; STING^−/− macrophages reconstituted with mSTING-HA, DMXAA): restored phosphorylation of TBK1 and IRF3
- phosphorylation of TBK1 and IRF3 ([1]; WT macrophages, DMXAA 50 μg/ml or ML RR-S2 CDA 50 μM): rapid and potent phosphorilation of TBK1 and IRF3; also recorded: phosphorylation of TBK1 and IRF3 was observed
- antitumor effect (tumors): induced haemorrhagic necrosis and tumour regression
